Legend:
Homo sapiens = test: Antiinflammatory activity in psoriasis patient assessed as incident of 75% reduction in psoriasis area and severity index score at 40 mg, po dosed daily during phase 2 study for 28 weeks; assay type: functional; parameters: scale not given: the % may be the effect or the level left
[1] = Drug metabolism in human plasma assessed as formation of 4-((3(2-hydroxyphenyl)-4-oxo-2-(propylimino)thiazolidin-5-ylidene)methyl)benzoic acid at 37 degC; assay type: ADME, cell-free
[2] = target: Sphingosine 1-phosphate receptor 1 (Homo sapiens, UniProt P21453); test: Inhibition of S1PR1 (unknown origin) expressed in CHOK1 cells after 90 mins by beta-arresting recuitment assay; assay type: functional, cell-based
[3] = Drug level in human plasma treated with (5-methyl-2-oxo-1,3-dioxol-4-yl)methyl 4-((3-(2-hydroxyphenyl)-4-oxo-2-(propylimino)thiazolidin-5-ylidene)methyl)benzoate at 37 degC; assay type: ADME, cell-free

Sphingosine 1-phosphate receptor 1, sequence (P21453 whole entry): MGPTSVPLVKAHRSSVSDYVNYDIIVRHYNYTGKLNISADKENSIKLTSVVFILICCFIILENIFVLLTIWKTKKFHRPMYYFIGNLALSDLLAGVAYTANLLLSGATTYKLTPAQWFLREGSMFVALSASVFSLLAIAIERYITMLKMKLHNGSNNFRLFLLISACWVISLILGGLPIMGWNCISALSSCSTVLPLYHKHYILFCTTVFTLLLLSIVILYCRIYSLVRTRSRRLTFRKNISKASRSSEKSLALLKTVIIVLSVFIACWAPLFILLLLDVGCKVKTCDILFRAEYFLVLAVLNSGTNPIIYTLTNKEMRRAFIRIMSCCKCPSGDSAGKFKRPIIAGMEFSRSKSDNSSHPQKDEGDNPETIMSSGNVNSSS

Row | Compound | Activity (Homo sapiens) | Drug metabolism [1] | IC50 [2] | Drug metabolism [3]
1 | CCC/N=C1\S/C(=C\c2ccc(OC[C@H](O)CO)c(Cl)c2)C(=O)N1c1ccccc1C [PONESIMOD] | 77% | – | – | –
2 | CCC/N=C1\S/C(=C\c2ccc(C(=O)OCc3oc(=O)oc3C)cc2)C(=O)N1c1ccccc1O | – | Metabolite_Detected | > 1000 nM | –
3 | CCC/N=C1\S/C(=C\c2ccc(C(=O)O)cc2)C(=O)N1c1ccccc1O | – | – | > 1000 nM | Metabolite_Notdetected

From ChEMBL document CHEMBL4265888, “Discovery of super soft-drug modulators of sphingosine-1-phosphate receptor 1” (Bioorg Med Chem Lett, 2018)
